Assay results taken from patent publication US7005447B2, “Food product comprising hydroxymatairesinol” (Hormos Nutraceutical Oy Ltd., priority 1999, dated 2006).

Assays:
[1] = Analysis of metabolites from rat urine after different doses of HMR (GC-MS); type: in vivo; settings: 24 hour urine
Description: Ten Sprague—Dawley male rats (age 4 month) were used to study the metabolism of HMR in vivo. Animals were housed in pairs with 12 h light:dark cycle and had free access to water and soy-free basal diet (SDS, Whitham Essex, England) during the metabolism study.
Rats were cavaged with HMR dissolved in 10% ethanol in PEG in doses 3, 15, 25 and 50 mg/kg body weight once a day for two days. After second cavaging the 24 hour urine was collected in metabolic cages in collection jars containing 120 μl 0.56 M ascorbic acid and 120 μl 0.15 M Na-azide as preservatives. The centrifuged urine volumes were measured and stored in −20° C. For pretreatment 750 μl 0.2 M acetate buffer (pH 4.0±0.1) was added to 3.0 ml thawed urine aliquots. Sep-Pak C18 columns (100 mg silica based resin/column) were used for urine extractions. Columns were preconditioned with 3.0 ml H2O, 3.0 ml methanol and 3.0 ml acetate buffer. After urine had filtered through the column and washed with 3.0 ml of acetate buffer polyphenolics were eluted with 3.0 ml methanol. The eluate was evaporated to dryness under nitrogen in +45° C. water bath and dryed residues were redissolved in 3.0 ml of 0.2 M acetate buffer. 30 μl Helix pomatia enzyme mix was added and the solutions were incubated in +37° C. to hydrolyze both glucuronides and sulfates. 300 μl of flavone stock solution (100 μg/ml in EtOH) was added into hydrolyzed samples. The samples were extracted in C-18 columns and evaporated to dryness as described above and stored in −20° C. until analyzed with GC-MS.
The evaporated urine samples were dissolved in pyridine, and silylated by adding BSTFA:TMCS (10:1) silylation reagent. The GC-MS analyses of the silylated samples were performed with an HP 6890-5973 GC-MS instrument. The GC column was an HP-1 crosslinked methyl polysiloxane column (15 m×0.25 mm i.d., 0.25 μm film thickness). Helium was used as carrier gas at a flow of 1 ml/min. […] The quantitative calculations were based on uncorrected peak areas of target components relative to the internal standard.

[2] = Superoxide anion scavenging (xanthine-xanthine oxidase system, chemiluminescence); type: biochemical; settings: read-out: Superoxide anion scavenging, IC-50
Description: Superoxide anion scavenging method was based on the superoxide anion produced in controlled conditions by xanthine-xanthine oxidase system and detection of the generated reactive oxygen species by luminometer (Ahotupa et al., 1997). The ability of test compounds to decrease the chemiluminescence was evaluated. IC-50 concentration (concentration which prevented the chemiluminescence by 50%) was calculated.

[3] = system: intact and hypoandrogenic Noble strain male rats; assay: Estrogenic and antiestrogenic activity in adult male rats (intact and hypoandrogenic); type: in vivo, rat; settings: for Body weight / Coaculating gland relative weight / Seminal vesicle relative weight / Testis relative weight / Ventral Prostate relative weight: HMR 50 mg/kg daily; for Body weight / Coaculating gland relative weight / Seminal vesicle relative weight / Testis relative weight / Ventral Prostate relative weight / Pituitary LH (μg/pit) / Serum LH / Serum testosterone / Testis testosterone (ng/testis): four weeks, mean ± SD; for Pituitary LH (μg/pit) / Serum LH / Serum testosterone / Testis testosterone (ng/testis): 50 mg/kg HMR
Description: Estrogenic (antiandrogenic) and antiestrogenic effects of HMR were studied in intact and hypoandrogenic Noble strain male rats (age 6–9 month), correspondingly. The chronic hypoandrogenic state with both structural and functional changes in the male reproductive tract was induced by neonatal estrogenization (diethylstilbestrol, 10.0 μg/kg body weight in rape oil s.c. on postnatal days 1–5). These changes are known to be partly reversible by aromatase inhibitor treatment consisting daily dose of MPV-2213 ad 10–30 mg/kg body weight (Streng et al. unpublished observations).
Twelve of both intact and hypoandrogenic animals were cavaged in daily dosage of HMR 50 mg/kg body weight in rape oil. Another twelve animals from both animal models were cavaged with rape oil only as a placebo treatment. After four-week treatment the animals were sacrificed. The weights of testis and accessory sex glands (ventral prostate, seminal vesicles and coagulating gland) were measured. Serum and testis testosterone and pituitary and serum luteinizing hormone (LH) levels were measured by immunoassays (Haavisto et al. 1993).

MCF-7 cells = assay: Estrogenic and antiestrogenic activity in MCF-7 cell proliferation assay; type: cell-based, human; design: Estrogenic activity, cell proliferation: dose or concentration left out as unconfirmed; settings: 5 to 7 days, FIG. 2
Description: The MCF-7 cell line (human breast cancer cells) stock cultures were grown in phenol red free RPMI medium supplemented with 5% FCS, 100 U/ml penicillin and 100 μg/ml streptomycin, 10 μg/ml insulin and 1 nM 17β-estradiol in T-75 cell culture bottles. The medium was replaced with fresh ones three times per week. The stock cultures were harvested by trypsinization and suspended in 10 ml phenol red free versene solution and cenitifuged for 5 min 800 rpm. The cell pellet was carefully resuspended into RPMI medium supplemented with 5% dextran charcoal stripped FCS (dcFCS) and seeded on 6 well plates 50 000 cells/3.0 ml medium/well. On the second day of culture the medium was changed and test compounds were added. To test the estrogenicity of the lignan compounds, they were diluted in ethanol and added to cell cultures in final concentration of […]. In each proliferation assay 1.0 nM 17β-estradiol solution in ethanol was used as a positive control for estrogenic response. Equal amounts of ethanol were added to control wells. To test the antiestrogenicity both 17β-estradiol and lignan solutions were added to cell cultures. The cells were cultured for 5 to 7 days in the presence of test compounds, and the medium was changed every second day. Cell proliferation was quantified by counting the released nuclei with Coulter counter.

[4] = control and hypoandrogenic animals, 4-week treatment, versus placebo

COc1cc(CC2C(=O)OCC2C(O)c2ccc(O)c(OC)c2)ccc1O (centres unmarked) [HMR, hydroxymatairesinol]
Main excreting metabolite in urine ([1]; male rats, 3, 15, 25 and 50 mg/kg once a day for two days, FIG. 5): enterolactone | Relation between doses of HMR and amounts of urinary enterolactone ([1]; male rats, 3 to 50 mg/kg): linear correlation | Unmetabolized HMR and other metabolites (enterodiol and 7-hydroxyenterolactone) found in urine ([1]; male rats, unchanged when daily dose increased): Only minute amounts | IC50 [2]: 5.6 µM | Changes in testosterone or LH concentrations [3, 4]: no significant changes | Changes in the weights of accessory sex glands and testis [3, 4]: no significant changes | Body weight ([3]; hypoandrogenemic (neonatally estrogenized) male rats): 455 ± 36 g | Coaculating gland relative weight ([3]; hypoandrogenemic male rats): 70 ± 30 mg/kg body weight | Seminal vesicle relative weight ([3]; hypoandrogenemic male rats): 266 ± 49 mg/kg body weight | Testis relative weight ([3]; hypoandrogenemic male rats): 3276 ± 327 mg/kg body weight | Ventral Prostate relative weight ([3]; hypoandrogenemic male rats): 378 ± 198 mg/kg body weight | Pituitary LH (μg/pit) ([3]; hypoandrogenic male rats): 7.530 ± 2.286 μg/pit | Serum LH ([3]; hypoandrogenic male rats): 0.854 ± 0.333 ng/mL | Serum testosterone ([3]; hypoandrogenic male rats): 0.939 ± 0.431 ng/mL | Testis testosterone (ng/testis) ([3]; hypoandrogenic male rats): 48.0 ± 15.2 ng/testis | Pituitary LH (μg/pit) ([3]; intact male rats): 6.838 ± 2.061 μg/pit | Serum LH ([3]; intact male rats): 1.088 ± 0.352 ng/mL | Serum testosterone ([3]; intact male rats): 2.770 ± 1.421 ng/mL | Testis testosterone (ng/testis) ([3]; intact male rats): 112.9 ± 58.5 ng/testis | Body weight ([3]; intact male rats): 447 ± 38 g | Coaculating gland relative weight ([3]; intact male rats): 204 ± 48 mg/kg body weight | Seminal vesicle relative weight ([3]; intact male rats): 419 ± 59 mg/kg body weight | Testis relative weight ([3]; intact male rats): 4223 ± 304 mg/kg body weight | Ventral Prostate relative weight ([3]; intact male rats): 938 ± 148 mg/kg body weight | Estrogenic activity, cell proliferation (MCF-7 cells; MCF-7, lignan alone): very weak, not statistically significant | Antiestrogenic activity, cell proliferation (MCF-7 cells; MCF-7, lignan together with 17β-estradiol): very weak, not statistically significant
